Patent US20090030005A1, “Combinations for the treatment of cancer” (AMGEN INC., priority 2007, published 2009)
Like-named read-outs stand apart in the source and are kept apart here. Values belong to the molecule of their own block, whether it stands above or below them.

Legend:
Assay type in all cases: cell-based
MiaPaCa-2 cells = assay: 14C-thymidine incorporation assay, IC20 determination (MTAP status not specified); conditions: Homo sapiens, MIA PaCa-2; same thymidine incorporation assay as Example 2
Protocol: (§1) CDK4 inhibitor in MTAP^+/+ and MTAP^−/− MiaPaCa-2 cells. The IC50 of a CDK4 inhibitor was determined in the MTAP+/+ and MTAP−/− MiaPaCa-2 cells using a thymidine incorporation assay. MTAP^−/− and MTAP^+/+ MiaPaCa-2 cells from Example 1 were seeded at 2×10^4 cells/ml in 100 μl per well in Costar T plates (Amersham Biosciences). Twenty-four hours later a dose response of a CDK4 inhibitor PD-0332991 (1 nM; 3 nM, 10 nM, 30 nM, 100 nM, 300 nM, 1 μM, 3 μM, 10 μM and 30 μM concentrations) was added to triplicate wells. ^14C-Thymidine (0.1 μCi, Amersham) was added to each well for a final total volume of 200 μL. Plates were read on a beta counter for incorporation of the radioactive thymidine as a measure of cell viability at time 0, 24, 48, 72 and 96 hours. Data was calculated as the mean and standard deviation of triplicate samples divided by the mean and standard deviation of untreated control samples to yield percent of control.
Alanosine or MTX were then dosed at the IC20 concentrations together with a dose response of the CDK4 inhibitor with or without adenine or MTA.

MTAP-/- MiaPaCa-2 cells = assay: 14C-thymidine incorporation assay (cell viability) in MTAP-/- MiaPaCa-2 cells; conditions: for IC50: Homo sapiens
Protocol: (§2) Generation of MTAP^+/+ and MTAP^−/− MiaPaCa-2 cells. MiaPaCa-2 pancreatic cells, which harbor a homozygous deletion in MTAP (MTAP^−/−) were obtained from ATCC. Cells were infected with either a control virus (pLPC) or a virus expressing MTAP (pLPC-MTAP). Infected cells were selected by puromycin resistance and maintained in 0.5 μg/ml puromycin. MTAP expression in MTAP^+/+ MiaPaCa-2 cells was confirmed by QPCR.
as §1
(§3) Combination of de novo purine biosynthesis inhibitor and CDK4 inhibitor in MTAP^−/− cells with adenine. MTAP^−/− MiaPaCa-2 cells from Example 1 were seeded at 2×10^4 cells/ml in 100 μl per well in Costar T plates (Amersham Biosciences). Twenty-four hours later a dose response of a CDK4 inhibitor PD-0332991 (1 nM; 3 nM, 10 nM, 30 nM, 100 nM, 300 nM, 1 μM, 3 μM, 10 μM and 30 μM concentrations) was added to triplicate wells with or without 1.7 μM (IC20) of alanosine. Some cells were also treated with 20 μM adenine (Sigma) as rescue substrate. ^14C-Thymidine (0.1 μCi, Amersham) was added to each well for a final total volume of 200 μL. Plates were read for incorporation of the radioactive thymidine as a measure of cell viability on a beta counter at time 0, 24, 48, 72 and 96 hours. Data was calculated as the mean and standard deviation of triplicate samples divided by the mean and standard deviation of untreated control samples to yield percent of control.
as §3, with “MTA.” for “adenine.”, “MTA” for “adenine”
(§4) Combination of MTX and CDK4 inhibitor in MTAP^−/− cells. MTAP^−/− MiaPaCa-2 cells from Example 1 were seeded at 2×10^4 cells/ml in 100 μl per well in Costar T plates (Amersham Biosciences). Twenty-four hours later a dose response of a CDK4 inhibitor PD-0332991 (1 nM; 3 nM, 10 nM, 30 nM, 100 nM, 300 nM, 1 μM, 3 μM, 10 μM and 30 μM concentrations) and thymidine (20 μM, Sigma) was added to triplicate wells with or without 20 nM (IC20) of MTX. ^14C-Thymidine (0.1 μCi, Amersham) was added to each well for a final total volume of 200 μL. Plates were read for incorporation of the radioactive thymidine as a measure of cell viability on a beta counter at time 0, 24, 48, 72 and 96 hours.

MTAP+/+ MiaPaCa-2 cells = assay: 14C-thymidine incorporation assay (cell viability) in MTAP+/+ MiaPaCa-2 cells; conditions: for IC50: Homo sapiens
Protocol: as §2, §1
as §3, with “MTAP^+/+” for “MTAP^−/−”
Combination of de novo purine biosynthesis inhibitor and CDK4 inhibitor in MTAP^+/+ cells with MTA. MTAP^+/+ MiaPaCa-2 cells from Example 1 were seeded at 2×10^4 cells/ml in 100 μl per well in Costar T plates (Amersham Biosciences).
as §3, with “Twenty-four” for “Combination of de novo purine biosynthesis inhibitor and CDK4 inhibitor in MTAP^−/− cells with adenine. MTAP^−/− MiaPaCa-2 cells from Example 1 were seeded at 2×10^4 cells/ml in 100 μl per well in Costar T plates (Amersham Biosciences). Twenty-four”, “MTA” for “adenine”
as §4, with “MTAP^+/+” for “MTAP^−/−”

Compound: CN(Cc1cnc2nc(N)nc(N)c2n1)c1ccc(C(=O)N[C@@H](CCC(=O)O)C(=O)O)cc1 [MTX, Methotrexate]
- IC20 (MiaPaCa-2 cells): 2 nM

- IC50 (MTAP-/- MiaPaCa-2 cells; MIA PaCa-2, Example 2, first experiment, CDK4 inhibitor alone, MTAP-/- cells, FIG. 1, read-out: IC50 of the CDK4 inhibitor): 1560 nM
- IC50 (MTAP-/- MiaPaCa-2 cells; MIA PaCa-2, MTAP-/- cells, 1.7 μM alanosine and 20 μM MTA, read-out: IC50 of the CDK4 inhibitor together with the alanosine and with MTA): 643 nM
- IC50 (MTAP-/- MiaPaCa-2 cells; MIA PaCa-2, MTAP-/- cells, 1.7 μM alanosine and 20 μM adenine, read-out: IC50 of the CDK4 inhibitor together with the alanosine and with adenine): 2460 nM
- IC50 (MTAP-/- MiaPaCa-2 cells; MIA PaCa-2, MTAP-/- cells, 20 μM MTA, read-out: IC50 of the CDK4 inhibitor together with the MTA): 1710 nM
- IC50 (MTAP-/- MiaPaCa-2 cells; MIA PaCa-2, MTAP-/- cells, 20 μM adenine, read-out: IC50 of the CDK4 inhibitor together with the adenine): 950 nM
- IC50 (MTAP-/- MiaPaCa-2 cells; MIA PaCa-2, MTAP-/- cells, Examples 4 and 6, FIG. 3, 5, read-out: IC50 of the CDK4 inhibitor alone): 1280 nM
- IC50 (MTAP-/- MiaPaCa-2 cells; MIA PaCa-2, MTAP-/- cells, with 1.7 μM (IC20) alanosine, read-out: IC50 of the CDK4 inhibitor together with the alanosine): 287 nM
- IC50 (MTAP-/- MiaPaCa-2 cells; MIA PaCa-2, MTAP-/- cells, with thymidine 20 μM and 20 nM (IC20) MTX, read-out: IC50 of the CDK4 inhibitor together with MTX): 800 nM
- IC50 (MTAP-/- MiaPaCa-2 cells; MIA PaCa-2, MTAP-/- cells, with thymidine 20 μM, Example 8, FIG. 7, read-out: IC50 of the CDK4 inhibitor alone): 1300 nM
- IC50 (MTAP+/+ MiaPaCa-2 cells; MIA PaCa-2, Example 2, first experiment, CDK4 inhibitor alone, MTAP+/+ cells, FIG. 1, read-out: IC50 of the CDK4 inhibitor): 1820 nM
- IC50 (MTAP+/+ MiaPaCa-2 cells; MIA PaCa-2, MTAP+/+ cells, 1.7 μM alanosine and 20 μM MTA, read-out: IC50 of the CDK4 inhibitor together with the alanosine and with MTA): 6100 nM
- IC50 (MTAP+/+ MiaPaCa-2 cells; MIA PaCa-2, MTAP+/+ cells, 1.7 μM alanosine and 20 μM adenine, read-out: IC50 of the CDK4 inhibitor together with the alanosine and with adenine): 5560 nM
- IC50 (MTAP+/+ MiaPaCa-2 cells; MIA PaCa-2, MTAP+/+ cells, 20 μM MTA, read-out: IC50 of the CDK4 inhibitor together with the MTA): 8250 nM
- IC50 (MTAP+/+ MiaPaCa-2 cells; MIA PaCa-2, MTAP+/+ cells, 20 μM adenine, read-out: IC50 of the CDK4 inhibitor together with the adenine): 7360 nM
- IC50 (MTAP+/+ MiaPaCa-2 cells; MIA PaCa-2, MTAP+/+ cells, Examples 3 and 5, FIG. 2, 4, read-out: IC50 of the CDK4 inhibitor alone): 4330 nM
- IC50 (MTAP+/+ MiaPaCa-2 cells; MIA PaCa-2, MTAP+/+ cells, with 1.7 μM (IC20) alanosine, read-out: IC50 of the CDK4 inhibitor together with the alanosine): 996 nM
- IC50 (MTAP+/+ MiaPaCa-2 cells; MIA PaCa-2, MTAP+/+ cells, with thymidine 20 μM and 20 nM (IC20) MTX, read-out: IC50 of the CDK4 inhibitor together with MTX): 3500 nM
- IC50 (MTAP+/+ MiaPaCa-2 cells; MIA PaCa-2, MTAP+/+ cells, with thymidine 20 μM, Example 7, FIG. 6, read-out: IC50 of the CDK4 inhibitor alone): 3200 nM
Compound: CC(=O)c1c(C)c2cnc(Nc3ccc(N4CCNCC4)cn3)nc2n(C2CCCC2)c1=O [PD-0332991]

- Rescue of the alanosine shift of the IC50 of the CDK4 inhibitor (MTAP-/- MiaPaCa-2 cells; MTAP-/- cells, 20 μM rescue substrate): rescued
- Rescue of the alanosine shift of the IC50 of the CDK4 inhibitor (MTAP+/+ MiaPaCa-2 cells; MTAP+/+ cells, 20 μM rescue substrate): rescued
Compound: Nc1ncnc2nc[nH]c12 [adenine]

Compound: N[C@@H](CN(O)N=O)C(=O)O [alanosine]
- IC20 (MiaPaCa-2 cells): 1700 nM
